Reference: US7709471B2, “Compounds” (AstraZeneca AB, priority 2006, dated 2010)
Counter-ions that a name gives are not always drawn.

Tests used:
[1] = test system: human colon tumour cell line HT29; test: Cellular Assay (phosphohistone H3 Ser10 mitotic marker, HT29); type: cell-based; conditions: HT-29, 24 h, HT29 cells, read-out: IC50 (cellular assay, phosphohistone H3)
Method: Chromosome condensation in mitosis is accompanied by phosphorylation of histone H3 on serine 10.
After 24 hours, cells were fixed in 3.7% (v/v) formaldehyde then permeabilised and blocked for 10 minutes in 100 μl 0.5% (v/v) Triton X-100, 1% (w/v) bovine serum albumin (BSA) in phosphate buffered saline (PBS). […] The raw assay data were analysed by non-linear regression analysis and used to determine an IC50 value for each compound.

[2] = target: recombinant Plk1 (Homo sapiens, UniProt P53350); test: In Vitro Plk1 Enzyme Assay (SPA, GST-Cdc25C phosphorylation); type: biochemical; conditions: ATP 64 nM, 90 minutes, read-out: IC50 (Plk1 enzyme inhibition)
recombinant Plk1, sequence (P53350 whole entry): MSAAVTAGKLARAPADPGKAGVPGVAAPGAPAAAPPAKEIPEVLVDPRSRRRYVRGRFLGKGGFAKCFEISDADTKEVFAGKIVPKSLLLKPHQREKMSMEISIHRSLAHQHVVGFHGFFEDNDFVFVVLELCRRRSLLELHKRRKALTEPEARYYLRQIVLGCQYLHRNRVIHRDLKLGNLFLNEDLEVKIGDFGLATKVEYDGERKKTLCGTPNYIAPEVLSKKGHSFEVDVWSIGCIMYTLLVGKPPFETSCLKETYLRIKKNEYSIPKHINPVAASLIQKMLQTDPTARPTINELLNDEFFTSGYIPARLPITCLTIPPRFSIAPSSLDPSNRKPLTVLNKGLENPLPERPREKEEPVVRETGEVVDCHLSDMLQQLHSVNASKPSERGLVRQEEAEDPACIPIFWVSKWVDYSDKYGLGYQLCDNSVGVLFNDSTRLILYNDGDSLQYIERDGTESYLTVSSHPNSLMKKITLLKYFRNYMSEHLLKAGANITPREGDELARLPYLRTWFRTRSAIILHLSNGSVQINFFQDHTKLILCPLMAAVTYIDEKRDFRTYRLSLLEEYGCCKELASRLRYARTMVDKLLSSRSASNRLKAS

CCC1CN(C2CCCC2)c2nc(Nc3ccc(C(=O)NC4CCN(C)CC4)cc3OC)ncc2N(C)C1=O (single isomer, unassigned) [Example 236]
IC50 [1]: < 300 nM | IC50 [2]: < 300 nM

CCCC1CN(C2CCCC2)c2nc(Nc3ccc(C(=O)NC4CCN(C)CC4)cc3OC)ncc2N(C)C1=O (single isomer, unassigned) [Example 238]
IC50 [1]: < 1000 nM | IC50 [2]: < 1000 nM

COc1cc(C(=O)NC2CCN(C)CC2)ccc1Nc1ncc2c(n1)N(C1CCCC1)CC(C)C(=O)N2C (single isomer, unassigned) [Example 240]
IC50 [1]: < 300 nM | IC50 [2]: < 300 nM

COc1cc(C(=O)NC2CCN(C)CC2)ccc1Nc1ncc2c(n1)N(C1CCCC1)CCCN2C [Example 4, 4-[(2-Cyclopentyl-6-methyl-2,6,9,11-tetrazabicyclo[5.4.0]undeca-8,10,12-trien-10-yl)amino]-3-methoxy-N-(1-methyl-4-piperidyl)benzamide]
IC50 [1]: < 1000 nM | IC50 [2]: < 100000 nM

COc1cc(C(=O)NC2CCN(C)CC2)ccc1Nc1ncc2c(n1)N(C)CCC(=O)N2C [Example 5, 4-[(2,6-Dimethyl-5-oxo-2,6,9,11-tetrazabicyclo[5.4.0]undeca-7,9,11-trien-10-yl)amino]-3-methoxy-N-(1-methyl-4-piperidyl)benzamide]
IC50 [1]: < 30000 nM | IC50 [2]: < 300 nM

COc1cc(C(=O)NC2CCN(C)CC2)ccc1Nc1ncc2c(n1)N(C(C)C)CCC(=O)N2C [Example 6, 3-Methoxy-4-[(6-methyl-5-oxo-2-propan-2-yl-2,6,9,11-tetrazabicyclo[5.4.0]undeca-7,9,11-trien-10-yl)amino]-N-(1-methyl-4-piperidyl)benzamide]
IC50 [1]: < 300 nM | IC50 [2]: < 300 nM

COc1cc(C(=O)NC2CCN(C)CC2)ccc1Nc1ncc2c(n1)N(CCC(C)C)CCC(=O)N2C [Example 7, 3-Methoxy-4-[[6-methyl-2-(3-methylbutyl)-5-oxo-2,6,9,11-tetrazabicyclo[5.4.0]undeca-7,9,11-trien-10-yl]amino]-N-(1-methyl-4-piperidyl)benzamide]
IC50 [1]: < 1000 nM | IC50 [2]: < 1000 nM

COc1cc(C(=O)NCC(C)(C)CN(C)C)ccc1Nc1ncc2c(n1)N(C1CCCC1)CCC(=O)N2C [Example 10, 4-[(2-Cyclopentyl-6-methyl-5-oxo-2,6,9,11-tetrazabicyclo[5.4.0]undeca-8,10,12-trien-10-yl)amino]-N-(3-dimethylamino-2,2-dimethyl-propyl)-3-methoxy-benzamide hydrochloride]
IC50 [1]: < 300 nM | IC50 [2]: < 300 nM

COc1cc(C(=O)NC2CCN(C3CC3)CC2)ccc1Nc1ncc2c(n1)N(C1CCCC1)CCC(=O)N2C [Example 11, 4-[(6-cyclopentyl-2-methyl-3-oxo-2,6,8,10-tetrazabicyclo[5.4.0]undeca-8,10,12-trien-9-yl)amino]-N-(1-cyclopropyl-4-piperidyl)-3-methoxy-benzamide]
IC50 [1]: < 300 nM | IC50 [2]: < 300 nM

COc1cc(C(=O)NCCN2CCOCC2)ccc1Nc1ncc2c(n1)N(C1CCCC1)CCC(=O)N2C [Example 13, 4-[(6-cyclopentyl-2-methyl-3-oxo-2,6,8,10-tetrazabicyclo[5.4.0]undeca-8,10,12-trien-9-yl)amino]-3-methoxy-N-(2-morpholin-4-ylethyl)benzamide]
IC50 [1]: < 300 nM | IC50 [2]: < 300 nM

COc1cc(C(=O)NC2CCN(C)CC2)ccc1Nc1ncc2c(n1)N(CC(C)C)CCC(=O)N2C [Example 211, 3-methoxy-4-[[2-methyl-6-(2-methylpropyl)-3-oxo-2,6,8,10-tetrazabicyclo[5.4.0]undeca-7,9,11-trien-9-yl]amino]-N-(1-methyl-4-piperidyl)benzamide]
IC50 [2]: < 300 nM

COc1cc(C(=O)NC2CCN(C)CC2)ccc1Nc1ncc2c(n1)N(Cc1csc(C)n1)CCC(=O)N2C [Example 216, 3-methoxy-4-[[2-methyl-6-[(2-methyl1,3-thiazol-4-yl)methyl]-3-oxo-2,6,8,10-tetrazabicyclo[5.4.0]undeca-7,9,11-trien-9-yl]amino]-N-(1-methyl-4-piperidyl)benzamide]
IC50 [2]: < 1000 nM

CC(C)N1CCC(=O)N(C)c2cnc(Nc3ccc(C(=O)NCC(C)(C)CN(C)C)cc3)nc21 [Example 222, N-(3-dimethylamino-2,2-dimethyl-propyl)-4-[(2-methyl-3-oxo-6-propan-2-yl-2,6,8,10-tetrazabicyclo[5.4.0]undeca-7,9,11-trien-9-yl)amino]benzamide]
IC50 [2]: < 300 nM

CN(C)CC(C)(C)CNC(=O)c1ccc(Nc2ncc3c(n2)N(c2ccccc2)CCC(=O)N3C)c(Cl)c1 [Example 225, 3-chloro-N-(3-dimethylamino-2,2-dimethyl-propyl)-4-[(2-methyl-3-oxo-6-phenyl-2,6,8,10-tetrazabicyclo[5.4.0]undeca-8,10,12-trien-9-yl)amino]benzamide]
IC50 [2]: < 1000 nM

CN1C(=O)CCN(c2ccccc2)c2nc(Nc3ccc(C(=O)NCCN4CCOCC4)cc3Cl)ncc21 [Example 226, 3-chloro-4-[(2-methyl-3-oxo-6-phenyl-2,6,8,10-tetrazabicyclo[5.4.0]undeca-8,10,12-trien-9-yl)amino]-N-(2-morpholin-4-ylethyl)benzamide]
IC50 [2]: < 1000 nM

O=C1CCN(c2ccccc2)c2nc(Nc3ccc(C(=O)NCCN4CCOCC4)cc3Cl)ncc2N1 [Example 247, 3-chloro-N-(2-morpholin-4-ylethyl)-4-[(3-oxo-6-phenyl-2,6,8,10-tetrazabicyclo[5.4.0]undeca-7,9,11-trien-9-yl)amino]benzamide]
IC50 [2]: < 100000 nM

O=C1CCN(c2ccccc2)c2nc(Nc3ccc(C(=O)NCCN4CCOCC4)cc3)ncc2N1 [Example 249, N-(2-morpholin-4-ylethyl)-4-[(3-oxo-6-phenyl-2,6,8,10-tetrazabicyclo[5.4.0]undeca-7,9,11-trien-9-yl)amino]benzamide]
IC50 [2]: < 100000 nM

COc1cc(C(=O)NCCN2CCOCC2)ccc1Nc1ncc2c(n1)N(C1CCCC1)CCC(=O)N2 [Example 250, 4-[(6-cyclopentyl-3-oxo-2,6,8,10-tetrazabicyclo[5.4.0]undeca-8,10,12-trien-9-yl)amino]-3-methoxy-N-(2-morpholin-4-ylethyl)benzamide]
IC50 [2]: < 1000 nM

COc1cc(C(=O)NC2CCN(C)CC2)ccc1Nc1ncc2c(n1)N(c1ccccc1)CCC(=O)N2 [Example 251, 3-methoxy-N-(1-methyl-4-piperidyl)-4-[(3-oxo-6-phenyl-2,6,8,10-tetrazabicyclo[5.4.0]undeca-8,10,12-trien-9-yl)amino]benzamide]
IC50 [2]: < 100000 nM

CN1CCC(NC(=O)c2ccc(Nc3ncc4c(n3)N(C3CCCC3)CCC(=O)N4)cc2)CC1 [Example 254, 4-[(6-cyclopentyl-3-oxo-2,6,8,10-tetrazabicyclo[5.4.0]undeca-8,10,12-trien-9-yl)amino]-N-(1-methyl-4-piperidyl)benzamide]
IC50 [2]: < 100000 nM

CN(C)CC(C)(C)CNC(=O)c1ccc(Nc2ncc3c(n2)N(C2CCCC2)CCC(=O)N3)c(Cl)c1 [Example 255, 3-chloro-4-[(6-cyclopentyl-3-oxo-2,6,8,10-tetrazabicyclo[5.4.0]undeca-8,10,12-trien-9-yl)amino]-N-(3-dimethylamino-2,2-dimethyl-propyl)benzamide]
IC50 [2]: < 100000 nM

COCC(C)N1CCC(=O)Nc2cnc(Nc3ccc(C(=O)NC4CCN(C)CC4)cc3OC)nc21 (stereo not shown) [Example 258, 3-methoxy-4-[[6-(1-methoxypropan-2-yl)-3-oxo-2,6,8,10-tetrazabicyclo[5.4.0]undeca-7,9,11-trien-9-yl]amino]-N-(1-methyl-4-piperidyl)benzamide]
IC50 [2]: < 100000 nM

CCN1C(=O)CCN(C2CCCC2)c2nc(Nc3ccc(C(=O)NC4CCN(C)CC4)cc3OC)ncc21 [Example 259, 4-[(6-cyclopentyl-2-ethyl-3-oxo-2,6,8,10-tetrazabicyclo[5.4.0]undeca-8,10,12-trien-9-yl)amino]-3-methoxy-N-(1-methyl-4-piperidyl)benzamide]
IC50 [2]: < 1000 nM

CN1CCC(NC(=O)c2csc(Nc3ncc4c(n3)N(C3CCCC3)CCC(=O)N4C)n2)CC1 [Example 261, 2-[(6-cyclopentyl-2-methyl-3-oxo-2,6,8,10-tetrazabicyclo[5.4.0]undeca-8,10,12-trien-9-yl)amino]-N-(1-methyl-4-piperidyl)1,3-thiazole-4-carboxamide]
IC50 [2]: < 100000 nM

Cc1nc(Nc2ncc3c(n2)N(C2CCCC2)CCC(=O)N3C)sc1C(=O)NC1CCN(C)CC1 [Example 262, 2-[(6-cyclopentyl-2-methyl-3-oxo-2,6,8,10-tetrazabicyclo[5.4.0]undeca-8,10,12-trien-9-yl)amino]-4-methyl-N-(1-methyl-4-piperidyl)1,3-thiazole-5-carboxamide]
IC50 [2]: < 1000 nM

CN1C(=O)CCN(C2CCCC2)c2nc(Nc3ccc(Cl)nc3)ncc21 [Example 266, 9-[(6-chloropyridin-3-yl)amino]-6-cyclopentyl-2-methyl-2,6,8,10-tetrazabicyclo[5.4.0]undeca-8,10,12-trien-3-one]
IC50 [2]: < 100000 nM

COc1ccc(Nc2ncc3c(n2)N(C2CCCC2)CCC(=O)N3C)cn1 [Example 267, 6-cyclopentyl-9-[(6-methoxypyridin-3-yl)amino]-2-methyl-2,6,8,10-tetrazabicyclo[5.4.0]undeca-8,10,12-trien-3-one]
IC50 [2]: < 1000 nM

CN1C(=O)CCN(C2CCCC2)c2nc(Nc3ccncc3)ncc21 [Example 268, 6-cyclopentyl-2-methyl-9-(pyridin-4-ylamino)-2,6,8,10-tetrazabicyclo[5.4.0]undeca-8,10,12-trien-3-one]
IC50 [2]: < 100000 nM

COc1cc(C(=O)NC2CCN(C)CC2)ccc1Nc1ncc2c(n1)N(Cc1c(C)noc1C)CCC(=O)N2C [Example 273, 4-[[2-[(3,5-dimethyl-1,2-oxazol-4-yl)methyl]-6-methyl-5-oxo-2,6,9,11-tetrazabicyclo[5.4.0]undeca-7,9,11-trien-10-yl]amino]-3-methoxy-N-(1-methyl-4-piperidyl)benzamide]
IC50 [2]: < 100000 nM

COc1cc(C(=O)NC2CCCCC2)ccc1Nc1ncc2c(n1)N(CCN1CCCCC1)CCC(=O)N2C [Example 276, N-cyclohexyl-3-methoxy-4-[[6-methyl-5-oxo-2-[2-(1-piperidyl)ethyl]-2,6,9,11-tetrazabicyclo[5.4.0]undeca-7,9,11-trien-10-yl]amino]benzamide]
IC50 [2]: < 100000 nM
